Experimental data as given in patent US20260355274A1 (Onkure, Inc., priority 2022, published 2026).

Columns and labels:
SKMEL2 xenograft = assay: SKMEL2 NRAS mutated xenograft, tumor growth and regressions; assay type: in vivo, mouse; details: for tumor growth delay and regressions: single agent, SKMEL2 NRAS mutated xenograft
Source text: (§1) As used herein, “Son/2off” refers to a dosing schedule of 5 days on and 2 days off each week. […] Glyceraldehyde 3-phosphate dehydrogenase (GAPDH) was used as a control.

pERK = pERK in SKMEL2 tumors (MEKi PD); assay type: in vivo; details: 2 hours post dose
Source text: as §1

[1] = tested on: BRAF^V600E colorectal cancer (CRC); details: single-agent RAS pathway inhibition; cited from earlier work
BRAF^V600E melanoma = details: single-agent RAS pathway inhibition; cited from earlier work
HDAC 2 = HDAC 2 (Homo sapiens, UniProt Q92769); assay: enzymatic inhibition of HDAC 2; assay type: biochemical
HDAC 2, sequence (Q92769 whole entry): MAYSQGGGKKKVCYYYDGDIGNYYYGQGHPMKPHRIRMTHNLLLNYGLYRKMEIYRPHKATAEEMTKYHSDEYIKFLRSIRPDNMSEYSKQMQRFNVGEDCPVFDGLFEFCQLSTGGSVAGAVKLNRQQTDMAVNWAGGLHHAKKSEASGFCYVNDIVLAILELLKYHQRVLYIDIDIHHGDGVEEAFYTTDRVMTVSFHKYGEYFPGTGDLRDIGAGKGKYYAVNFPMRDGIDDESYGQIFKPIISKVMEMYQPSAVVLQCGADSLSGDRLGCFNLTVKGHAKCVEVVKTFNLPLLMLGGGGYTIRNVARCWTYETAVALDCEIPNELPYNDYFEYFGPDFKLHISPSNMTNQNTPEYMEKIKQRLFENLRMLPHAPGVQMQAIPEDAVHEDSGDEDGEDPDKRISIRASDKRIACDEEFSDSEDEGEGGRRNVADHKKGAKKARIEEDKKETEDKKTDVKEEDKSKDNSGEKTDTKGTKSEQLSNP
Source text: (§2) The mammalian HDACs can be divided into four classes depending on their sequence homology, sub-cellular distribution and catalytic activity. Class I, Il and IV HDACs have a Zn^2+ cofactor in the catalytic site. Class III HDACs contain sirtuins 1-7 and are NAD^+-dependent. Class I (HDACs 1, 2, 3 and 8) share the same homology as Rpd3 and are preliminarily distributed in the nucleus of normal cells. Class II HDACs can be subdivided into class IIa HDACs and class Ilb HDACs. Class IIa enzymes (HDAC 4, 5, 7 and 9) shuttle between the nucleus and cytoplasm and are located in specific tissues such as the brain, heart, and muscle. Class IIb (HDACs 6 and 10) are chiefly located in the cytoplasm.

HDAC 6 = HDAC 6 (Homo sapiens, UniProt Q9UBN7); assay: enzymatic inhibition of HDAC 6; assay type: biochemical
HDAC 6, sequence (Q9UBN7 whole entry): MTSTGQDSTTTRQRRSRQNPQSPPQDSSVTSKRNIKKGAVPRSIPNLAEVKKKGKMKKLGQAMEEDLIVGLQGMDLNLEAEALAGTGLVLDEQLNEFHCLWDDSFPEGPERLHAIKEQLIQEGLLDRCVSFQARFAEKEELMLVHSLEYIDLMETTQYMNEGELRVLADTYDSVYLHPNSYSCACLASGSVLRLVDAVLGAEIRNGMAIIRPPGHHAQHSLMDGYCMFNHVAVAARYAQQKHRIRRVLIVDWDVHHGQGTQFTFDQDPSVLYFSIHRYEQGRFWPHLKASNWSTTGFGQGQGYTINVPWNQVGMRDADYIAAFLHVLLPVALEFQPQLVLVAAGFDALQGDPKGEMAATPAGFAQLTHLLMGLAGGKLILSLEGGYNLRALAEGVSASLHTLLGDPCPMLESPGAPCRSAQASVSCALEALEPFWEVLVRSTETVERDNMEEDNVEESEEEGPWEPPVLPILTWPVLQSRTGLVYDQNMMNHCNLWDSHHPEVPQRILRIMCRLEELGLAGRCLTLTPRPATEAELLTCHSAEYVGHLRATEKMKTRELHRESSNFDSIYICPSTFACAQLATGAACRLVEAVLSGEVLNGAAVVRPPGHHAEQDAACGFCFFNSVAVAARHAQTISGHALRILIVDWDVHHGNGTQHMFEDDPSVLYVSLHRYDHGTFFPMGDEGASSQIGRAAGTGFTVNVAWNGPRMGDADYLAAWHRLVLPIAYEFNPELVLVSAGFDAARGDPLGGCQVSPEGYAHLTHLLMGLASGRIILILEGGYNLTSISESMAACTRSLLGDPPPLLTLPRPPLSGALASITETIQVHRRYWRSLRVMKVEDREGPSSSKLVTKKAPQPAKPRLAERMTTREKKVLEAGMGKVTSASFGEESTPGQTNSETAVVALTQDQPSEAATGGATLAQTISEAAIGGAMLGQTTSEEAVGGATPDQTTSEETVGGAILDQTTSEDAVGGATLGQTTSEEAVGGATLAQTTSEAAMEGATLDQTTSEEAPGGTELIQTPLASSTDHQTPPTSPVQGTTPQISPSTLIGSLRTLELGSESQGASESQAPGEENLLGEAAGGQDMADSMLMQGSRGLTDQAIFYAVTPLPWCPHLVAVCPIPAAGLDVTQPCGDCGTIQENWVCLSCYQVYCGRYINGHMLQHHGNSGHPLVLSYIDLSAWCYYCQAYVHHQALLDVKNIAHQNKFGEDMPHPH
Source text: as §2

HDAC 11 = HDAC 11 (Homo sapiens, UniProt Q96DB2); assay: enzymatic inhibition of HDAC 11; assay type: biochemical; details: HDAC 11, Class IV
Source text: as §2

HDAC 9 = HDAC 9 (Homo sapiens, UniProt Q9UKV0); assay: enzymatic inhibition of HDAC 9; assay type: biochemical
Source text: as §2

HDAC 7 = HDAC 7 (Homo sapiens, UniProt Q8WUI4); assay: enzymatic inhibition of HDAC 7; assay type: biochemical
Source text: as §2

HDAC 10 = HDAC 10 (Homo sapiens, UniProt Q969S8); assay: enzymatic inhibition of HDAC 10; assay type: biochemical; details: HDAC 10, Class IIb
HDAC 10, sequence (Q969S8 whole entry): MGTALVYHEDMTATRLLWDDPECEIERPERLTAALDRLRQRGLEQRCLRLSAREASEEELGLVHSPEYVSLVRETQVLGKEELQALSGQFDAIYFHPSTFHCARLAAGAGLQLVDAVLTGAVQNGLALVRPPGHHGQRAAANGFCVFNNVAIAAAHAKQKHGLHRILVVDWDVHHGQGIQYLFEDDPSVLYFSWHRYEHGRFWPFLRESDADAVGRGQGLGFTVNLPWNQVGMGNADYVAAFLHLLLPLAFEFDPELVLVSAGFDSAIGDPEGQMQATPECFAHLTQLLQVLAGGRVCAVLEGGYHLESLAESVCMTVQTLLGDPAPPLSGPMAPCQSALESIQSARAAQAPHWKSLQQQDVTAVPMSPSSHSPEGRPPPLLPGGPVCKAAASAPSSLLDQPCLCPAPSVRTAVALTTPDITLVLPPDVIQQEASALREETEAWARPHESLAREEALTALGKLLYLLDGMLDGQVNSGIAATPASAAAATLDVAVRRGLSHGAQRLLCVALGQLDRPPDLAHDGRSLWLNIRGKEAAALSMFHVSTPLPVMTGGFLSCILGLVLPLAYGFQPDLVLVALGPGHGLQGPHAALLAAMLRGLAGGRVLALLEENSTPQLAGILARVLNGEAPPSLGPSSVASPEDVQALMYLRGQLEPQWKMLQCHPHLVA
Source text: as §2

HDAC 8 = HDAC 8 (Homo sapiens, UniProt Q9BY41); assay: enzymatic inhibition of HDAC 8; assay type: biochemical
HDAC 8, sequence (Q9BY41 whole entry): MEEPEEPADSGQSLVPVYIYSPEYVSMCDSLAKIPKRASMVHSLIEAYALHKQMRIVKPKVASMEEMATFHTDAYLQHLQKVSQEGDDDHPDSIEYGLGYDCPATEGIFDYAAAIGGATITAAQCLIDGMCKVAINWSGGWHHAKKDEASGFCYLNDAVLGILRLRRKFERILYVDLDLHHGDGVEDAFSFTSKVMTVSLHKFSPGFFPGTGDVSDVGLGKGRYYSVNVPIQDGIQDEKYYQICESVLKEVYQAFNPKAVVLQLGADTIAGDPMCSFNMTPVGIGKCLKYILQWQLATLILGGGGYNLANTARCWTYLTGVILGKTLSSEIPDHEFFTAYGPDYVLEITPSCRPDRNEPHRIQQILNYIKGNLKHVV
Source text: as §2

HDAC 5 = HDAC 5 (Homo sapiens, UniProt Q9UQL6); assay: enzymatic inhibition of HDAC 5; assay type: biochemical
HDAC 5, sequence (Q9UQL6 whole entry): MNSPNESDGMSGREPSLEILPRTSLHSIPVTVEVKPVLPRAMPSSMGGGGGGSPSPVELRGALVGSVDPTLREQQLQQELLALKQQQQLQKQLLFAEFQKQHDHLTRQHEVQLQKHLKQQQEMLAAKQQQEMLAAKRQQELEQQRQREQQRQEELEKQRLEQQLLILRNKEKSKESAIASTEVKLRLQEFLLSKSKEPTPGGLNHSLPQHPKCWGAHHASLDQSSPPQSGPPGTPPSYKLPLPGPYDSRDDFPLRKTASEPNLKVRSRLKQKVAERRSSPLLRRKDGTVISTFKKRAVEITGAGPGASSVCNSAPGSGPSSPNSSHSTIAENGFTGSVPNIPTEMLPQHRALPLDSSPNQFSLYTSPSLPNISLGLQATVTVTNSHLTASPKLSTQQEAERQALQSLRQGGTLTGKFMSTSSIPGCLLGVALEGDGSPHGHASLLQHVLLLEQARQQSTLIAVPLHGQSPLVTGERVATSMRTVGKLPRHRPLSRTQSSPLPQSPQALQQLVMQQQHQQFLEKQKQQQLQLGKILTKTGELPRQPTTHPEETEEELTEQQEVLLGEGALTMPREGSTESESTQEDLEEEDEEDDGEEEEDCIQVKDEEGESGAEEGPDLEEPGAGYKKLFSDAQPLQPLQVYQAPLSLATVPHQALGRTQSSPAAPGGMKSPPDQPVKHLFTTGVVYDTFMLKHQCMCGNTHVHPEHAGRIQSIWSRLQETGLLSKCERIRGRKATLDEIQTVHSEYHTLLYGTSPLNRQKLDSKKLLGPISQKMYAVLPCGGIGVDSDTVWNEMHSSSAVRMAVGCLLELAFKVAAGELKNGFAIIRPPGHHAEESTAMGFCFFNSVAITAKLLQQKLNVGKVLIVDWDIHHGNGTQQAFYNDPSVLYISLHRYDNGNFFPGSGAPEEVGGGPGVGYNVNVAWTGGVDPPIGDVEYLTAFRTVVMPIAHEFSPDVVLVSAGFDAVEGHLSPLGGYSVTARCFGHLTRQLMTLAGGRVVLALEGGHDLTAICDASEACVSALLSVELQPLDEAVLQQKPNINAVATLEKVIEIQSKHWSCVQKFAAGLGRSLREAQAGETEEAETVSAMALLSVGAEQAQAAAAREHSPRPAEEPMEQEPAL
Source text: as §2

HDAC 4 = HDAC 4 (Homo sapiens, UniProt P56524); assay: enzymatic inhibition of HDAC 4; assay type: biochemical
HDAC 4, sequence (P56524 whole entry): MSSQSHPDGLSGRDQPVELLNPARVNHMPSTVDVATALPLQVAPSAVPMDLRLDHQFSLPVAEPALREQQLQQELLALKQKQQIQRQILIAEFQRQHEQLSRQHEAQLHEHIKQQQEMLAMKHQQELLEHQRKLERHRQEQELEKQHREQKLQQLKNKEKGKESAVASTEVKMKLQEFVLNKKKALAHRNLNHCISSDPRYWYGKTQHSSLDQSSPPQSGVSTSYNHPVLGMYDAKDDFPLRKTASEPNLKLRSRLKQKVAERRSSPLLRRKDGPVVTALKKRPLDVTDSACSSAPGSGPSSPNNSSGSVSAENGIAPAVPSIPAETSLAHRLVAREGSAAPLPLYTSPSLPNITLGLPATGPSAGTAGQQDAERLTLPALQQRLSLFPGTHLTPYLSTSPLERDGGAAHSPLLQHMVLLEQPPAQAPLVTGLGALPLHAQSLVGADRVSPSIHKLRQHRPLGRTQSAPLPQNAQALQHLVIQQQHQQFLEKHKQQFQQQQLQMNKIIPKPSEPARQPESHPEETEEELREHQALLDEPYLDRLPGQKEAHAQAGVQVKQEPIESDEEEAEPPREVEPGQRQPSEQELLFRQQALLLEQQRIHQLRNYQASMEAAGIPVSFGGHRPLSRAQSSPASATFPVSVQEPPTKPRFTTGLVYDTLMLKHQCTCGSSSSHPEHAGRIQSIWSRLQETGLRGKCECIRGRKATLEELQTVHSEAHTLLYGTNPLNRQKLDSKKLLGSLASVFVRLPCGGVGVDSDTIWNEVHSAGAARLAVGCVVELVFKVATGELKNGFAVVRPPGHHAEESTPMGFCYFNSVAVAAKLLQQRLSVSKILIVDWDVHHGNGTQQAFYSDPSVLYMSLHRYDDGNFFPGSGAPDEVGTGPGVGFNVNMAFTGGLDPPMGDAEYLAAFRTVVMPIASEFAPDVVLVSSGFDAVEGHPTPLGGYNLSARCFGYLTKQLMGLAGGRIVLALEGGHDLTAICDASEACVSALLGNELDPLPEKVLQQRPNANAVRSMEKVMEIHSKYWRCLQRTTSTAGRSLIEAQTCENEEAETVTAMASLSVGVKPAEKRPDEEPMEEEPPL
Source text: as §2

[2] = metabolism to active compound; details: to OKI-006
Source text: The following figures are illustrative of specific embodiments of the invention and are not intended to otherwise limit the scope of the invention as described herein. OKI-005 is an in vitro optimized tool compound. […] In the figures, “bini” is equivalent to binimetinib (a MEK 1/2 inhibitor) and “enco” is equivalent to encorafenib (a BRAF inhibitor).

[3] = tested on: human uveal melanoma cell line MP46; assay: 72 hour proliferation assay (CellTiter-Glo), uveal melanoma MP46; assay type: cell-based; details: combined with binimetinib, GNAQ/11 Q209L
Method: (§3) In particular, cells are grown in multi-well plates and incubated with the OKI-005 and binimetinib for 72 hours. The number of viable cells is determined by luminescence readout after the addition of CellTiter-Glo (CTG) dye.

[4] = tested on: AGS human gastric adenocarcinoma hyperdiploid cell line; assay: 72 hour proliferation assay (CellTiter-Glo), AGS, KRAS G12D; assay type: cell-based
Method: as §3
(§4) FIGS. 12A, 12B and 12C illustrate the results of studies of the combination of OKI-005 with each of binimetinib, GDC-0994 and sotorasib in the NCI-H358 (NSCLC KRAS^G12C) cell line. FIGS. 12D, 12E and 12F illustrate the results of studies of the combination of OKI-005 with each of binimetinib, GDC-0994 and MRTX1133 (a KRAS^G12D Inhibitor) in the AGS (Gastric KRAS^G12D) cell line. […] In particular, cells are grown in multi-well plates and incubated with the OKI-005 and binimetinib for 72 hours. The number of viable cells is determined by luminescence readout after the addition of CellTiter-Glo (CTG) dye.

[5] = tested on: NCI-H358 non-small cell lung cancer cell line; assay: 72 hour proliferation assay (CellTiter-Glo), NCI-H358, KRAS G12C; assay type: cell-based
Method: as §3, §4

[6] = tested on: SKMEL2 melanoma cell line; assay: 72 hour proliferation assay (CellTiter-Glo), SKMEL2 melanoma, NRAS mutated; assay type: cell-based; details: combined with binimetinib
Method: as §3
In particular, in FIGS. 9A and 9B, cells are grown in multi-well plates and incubated with the OKI-005 and binimetinib for 72 hours. The number of viable cells is determined by luminescence readout after the addition of CellTiter-Glo (CTG) dye. SEM is the standard error of the mean, […]

[7] = tested on: RAS mutated cell lines and RAS WT cell lines; assay: 72-hour proliferation assay, RAS mutated versus RAS wild-type cell lines; assay type: cell-based; details: combined with binimetinib, physiologically relevant concentrations, Day 3 compared to Day 0
Source text: . The RAS mutated cell lines and the RAS WT cell lines involved in this study represent conventional and well known cell lines for this purpose. See, e.g., FIG. 16.

[8] = tested on: human uveal melanoma cell line 92-1; assay: 72 hour proliferation assay (CellTiter-Glo), uveal melanoma 92-1; assay type: cell-based; details: combined with binimetinib, GNAQ/11 Q209L
Method: as §3

[9] = tested on: MGMT-positive human tumor cell lines versus MGMT-negative human tumor cell lines; assay: synergy in MGMT-positive versus MGMT-negative tumor cell lines; assay type: cell-based; details: combination with binimetinib compared to OKI-005 or binimetinib alone
[10] = tested on: RAS-pathway mutated models; assay: preclinical activity in RAS-pathway mutated models; assay type: in vivo; details: in combination with binimetinib
Source text: As an example of the frequency of mutations associated with various cancers, mutations in NRAS account for 20% of all melanomas and affect approximately 65,000 patients worldwide. Such melanomas have a tendency to be more aggressive than their wild-type counterparts and frequently have poor outcomes. Current therapies for NRAS-mutant melanoma remain limited, with little efficacy. No targeted therapies are currently available post PD1i.

advanced cancer patients = assay: maximally-tolerated dose in advanced cancer patients; assay type: in vivo, human
Source text: It will be appreciated that appropriate dosages can vary from patient to patient. Determining the optimal dosage will generally involve the balancing of the level of therapeutic benefit against any risk or deleterious side effects of the treatments described herein. The selected dosage level will depend on a variety of factors including, but not limited to, the activity of the particular compound, the route of administration, the time of administration, the rate of excretion of the compound, the duration of the treatment, other drugs, compounds, or materials used in combination, and the age, sex, weight, condition, general health, and prior medical history of the patient. The amount(s) of the compound(s) administered and the route of administration will ultimately be at the discretion of a physician. […] On Schedule 2, the MTD was 200 mg daily on a continuous dosing regimen and on Schedule 3, the MTD was 300 mg for 5 days on and 2 days off each week.

[11] = tested on: NCI-H358 KRAS^G12C non-small cell lung cancer xenografts; assay: NCI-H358 KRAS G12C NSCLC xenografts, regressions; assay type: in vivo, mouse; details: combined with sotorasib, 50-day period after dosing
Source text: As used herein, “4on/3off” refers to a dosing schedule of 4 days on and 3 days off each week.

Ac-H3K9 = Ac-H3K9 in SKMEL2 tumors (HDACi PD); assay type: in vivo; details: 2 hours post dose
Source text: as §1

[12] = tested on: HT29 BRAF^V600E colorectal (CRC) xenografts; assay: HT29 BRAF V600E colorectal xenografts, regressions; assay type: in vivo, mouse; details: combined with binimetinib and encorafenib, following two weeks of dosing
mouse xenograft models = details: with binimetinib
[13] = tested on: patients with solid tumors; assay: Phase 1 clinical trials in patients with solid tumors; assay type: in vivo, human; details: Phase 1, single agent, oral
[14] = mouse body weight change, HT29 xenograft study; assay type: in vivo; details: combined with binimetinib and encorafenib, up to 15 days after randomization
[15] = tested on: KRAS^G12C colorectal cancer (CRC); details: single-agent RAS pathway inhibition; cited from earlier work
[16] = tested on: KRAS^G12C pancreatic cancer; details: single-agent RAS pathway inhibition; cited from earlier work
[17] = combined with binimetinib, 72 hours, KRAS

SMILES: Cn1cnc2c(F)c(Nc3ccc(Br)cc3F)c(C(=O)NOCCO)cc21 [binimetinib, reference compound]
- tumor growth delay and regressions (SKMEL2 xenograft): tumor growth delay, but few regressions
- on-target PD activity, pERK (MEKi PD) (pERK): strong on-target PD activity

SMILES: CCCS(=O)(=O)Nc1ccc(F)c(C(=O)c2c[nH]c3ncc(-c4ccc(Cl)cc4)cc23)c1F [vemurafenib]
- effectiveness [1]: relative ineffectiveness
- effectiveness (BRAF^V600E melanoma): relative ineffectiveness

SMILES: C/C=C1\NC(=O)[C@@H](CS)NC(=O)[C@@H](C(C)C)NC(=O)C[C@@H](/C=C/CCS)OC(=O)[C@H](C(C)C)NC1=O [Red-FK228, reference compound]
- IC50 (HDAC 2): 1 nM
- IC50 (HDAC 6): 226 nM
- IC50 (HDAC 11): 0.3 nM
- IC50 (HDAC 9): > 1000 nM
- IC50 (HDAC 7): > 1000 nM
- IC50 (HDAC 10): 0.9 nM
- IC50 (HDAC 8): > 1000 nM
- IC50 (HDAC 5): > 1000 nM
- IC50 (HDAC 4): 647 nM

SMILES: CCCCCCCC(=O)SCC/C=C/[C@@H]1CC(=O)NCc2nc(cs2)C(=O)NC(C)(C)C(=O)N[C@@H](C(C)C)C(=O)O1 [OKI-005]
- metabolism to active compound [2]: metabolized to the same active compound, OKI-006
- anti-proliferative activity, synergy [3]: synergistic anti-proliferative activity
- Loewe synergy ([4]; combined with GDC-0994, KRAS^G12D): combination synergy was observed in all cases
- Loewe synergy ([4]; combined with MRTX1133, KRAS^G12D): combination synergy was observed in all cases
- anti-proliferative activity, synergy [4, 17]: synergistic anti-proliferative activity
- Loewe synergy ([4]; combined with binimetinib, 72 hours, KRAS^G12D): combination synergy was observed in all cases
- Loewe synergy ([5]; combined with GDC-0994, KRAS^G12C): combination synergy was observed in all cases
- anti-proliferative activity, synergy [5, 17]: synergistic anti-proliferative activity
- Loewe synergy ([5]; combined with binimetinib, 72 hours, KRAS^G12C): combination synergy was observed in all cases
- Loewe synergy ([5]; combined with sotorasib, KRAS^G12C): combination synergy was observed in all cases
- anti-proliferative activity, synergy ([6]; 72 hours, NRAS): synergistic anti-proliferative activity
- cell growth inhibition and cell death (PARP cleavage) ([6]; NRAS-mutated SKMEL2): significant cell growth inhibition and cell death
- synergy, RAS mutated compared to RAS wild-type [7]: a superior effect greater than that of either agent alone
- anti-proliferative activity, synergy [8]: synergistic anti-proliferative activity
- synergistic effects in MGMT-positive versus MGMT-negative cell lines [9]: synergistic effects

SMILES: CC(C)[C@H](N)C(=O)SCC/C=C/[C@@H]1CC(=O)NCc2nc(cs2)C(=O)NC(C)(C)C(=O)N[C@@H](C(C)C)C(=O)O1.O=S(=O)(O)c1ccccc1 [OKI-179]
- regressions [10]: regressions in multiple RAS-pathway mutated models
- metabolism to active compound [2]: metabolized to the same active compound, OKI-006
- recommended Phase 2 dose (RP2D) (advanced cancer patients; Schedule 1, oral, 4 days on and 3 days off each week): 300 mg
- MTD (advanced cancer patients; Schedule 1, oral, daily, 4 days on and 3 days off each week): 450 mg
- MTD (advanced cancer patients; Schedule 2, oral, daily, continuous dosing regimen): 200 mg
- MTD (advanced cancer patients; Schedule 3, oral, 5 days on and 2 days off each week): 300 mg
- regressions [11]: significantly increased regressions compared to either OKI-179 or sotorasib alone
- regressions (SKMEL2 xenograft; combination with binimetinib versus either single agent, following two weeks of dosing): significantly increased regressions compared to either single agent
- tumor growth delay and regressions (SKMEL2 xenograft): tumor growth delay, but few regressions
- on-target PD activity, Ac-H3K9 (HDACi PD) (Ac-H3K9): strong on-target PD activity
- regressions [12]: significantly increased regressions compared to either OKI-179 alone or the combination of binimetinib and encorafenib
- synergy at physiologically-relevant doses (mouse xenograft models): synergy associated with OKI-179 and binimetinib occurs at physiologically-relevant doses of OKI-179
- pharmacodynamic activity [13]: strong pharmacodynamic activity at tolerated doses
- mouse body weight loss [14]: greater weight loss than either OKI-179 alone or the combination of binimetinib and encorafenib

SMILES: C=CC(=O)N1CCN(c2nc(=O)n(-c3c(C)ccnc3C(C)C)c3nc(-c4c(O)cccc4F)c(F)cc23)[C@@H](C)C1 [sotorasib]
- effectiveness [15]: relative ineffectiveness
- effectiveness [16]: relative ineffectiveness
